Experimental data reported in patent US20210353595A1, “USE OF MELATONIN IN PREPARATION OF MEDICAMENT FOR INHIBITING AND/OR KILLING BACTERIUM” (priority 2020, published 2021).
Converted amounts (≈) assume the structure as drawn.

What was measured:
[1] = test system: gram-negative bacteria and gram-positive bacteria; assay: MIC/MBC test, summary over all tested bacteria; assay type: cell-based; conditions: range over all gram-negative and gram-positive bacteria of Table 1
Protocol: 1 mL of a fresh suspension of bacteria (1×10^9 CFU) at the logarithmic growth stage was added into 100 mL containing different concentrations (50 mg/mL, 25 mg/mL, 12.5 mg/mL, 6.25 mg/mL, 3.125 mg/mL, 1.5625 mg/mL, 0.78125 mg/mL, 0.390625 mg/mL) of melatonin. A melatonin (MT)-free solution diluted with DMSO was used as a control group. The samples were shaken at 37° C. and a rotation speed of 120 r/min with protection from light for 12 hours, and then subjected to detection of the minimal inhibitory concentration (MIC) of MT on bacteria. Then, 0.1 mL of the aforementioned transparent bacterial solution was pipetted onto a sterilized agar plate of a specific culture medium and coated evenly, incubated in an incubator at 37° C. for 24 hours, and then subjected to detection of the minimum bactericidal concentration (MBC) of MT on pathogens, wherein the minimum concentration of MT at which no bacterium grew was the MBC of MT on pathogens. Each experiment was carried out for 3 times, and each group was set in triplicate.

P. multocida cells = assay: SEM and TEM morphology of bacterial cells; assay type: cell-based, Pasteurella multocida; conditions: MT 1, 2 or 3 mg/mL, 8, 12 or 16 hours
Protocol: The effect of melatonin on the morphologies of P. multocida cells were evaluated employing SEM and TEM. 1 mL of fresh Pasteurella multocida (1×10^9 CFU) at the logarithmic growth stage was added into 100 mL of fresh Martin liquid medium containing different concentrations (1, 2 or 3 mg/mL) of MT. MT-free DMSO was used as a solvent control group and ampicillin (100 μg/mL) was used as a positive control group. All cultures were shaken at 220 rpm in a shaker at 37° C. for 8 hours, 12 hours or 16 hours. The bacterial samples were centrifuged at 3000 r/min for 10 minutes, the supernatant was removed, and cells were collected and washed with PBS for 3 times. Then the cells were fixed with a fixation solution of 2.5% fresh glutaraldehyde for 6 hours, and washed with PBS for 3 times, each time for 10 minutes. Subsequently, the SEM samples were dehydrated with 50%, 70%, 80% and 90% ethanol for 15 minutes respectively, and then dehydrated with 100% ethanol for 3 times, each time for 30 minutes. Ethanol was removed by washing with tert-butyl alcohol for three times, each time for 30 minutes. The samples were dried by a freeze dryer and plated with 10 nm of gold film by an ion sputtering device. The samples were examined using a field scanning electron microscope (FESEM, Hitch SU8010).
The TEM samples were fixed with 1%-2% […] for 2-3 hours, and washed with […] 3 times, each time for 10 minutes. The samples were dehydrated with 30%, 50%, 70%, 80% and 90% ethanol for 20 minutes respectively, and then dehydrated with 100% ethanol 3 times, each time for 30 minutes. Ethanol was replaced with acetone three times, each time for 30 minutes. The bacterial samples were placed on a copper grid with a formvar membrane, and negatively stained with phosphotungstic acid (2% v/v, pH=6.7). The surface area of the sample was less than 0.2 mm×0.2 mm, and slice thickness was between 50 and 90 nm (Lycra UC7). The samples were detected by TEM (Hitachi H-7650) at 80 kV, and photographs of the samples were taken by a Gatan832 CCD camera (Gatan). […]

[2] = test system: citrate synthase in Pneumococcus; assay: Citrate synthase activity of bacteria after treatment; assay type: cell-based, Diplococcus pneumoniae; conditions: MT 1-3 mg/mL, 12 h, also with exogenous citric acid, FIG. 28
Protocol: Further, 1 mL of Klebsiella pneumoniae, Pseudomonas aeruginosa, Diplococcus pneumoniae and Streptococcus pneumoniae at the logarithmic growth stage was added into 100 mL of fresh and sterile Martin broth liquid medium containing different concentrations of melatonin and citric acid (MT-1 mg/mL, MT-2 mg/mL, MT-3 mg/mL, CA-1 mg/mL, CA-2 mg/mL, CA-3 mg/mL, MT-1 mg/mL-CA-1 mg/mL, MT-2 mg/mL-CA-2 mg/mL, MT-3 mg/mL-CA-3 mg/mL) added was. Melatonin-free DMSO was used as the solvent control group, and the bacterial cells were cultured in a constant-temperature shaker at 37° C. and 220 rpm for 12 h. Thereafter, 1 mL of the bacterial solution was pipetted and centrifuged at 3000 r/min for 10 minutes. The bacterial cells were then collected and determined for citrate synthase activity according to the protocol of the instructions for the kit. Each experiment was repeated three times, and each group was set in triplicate.

COc1ccc2[nH]cc(CCNC(C)=O)c2c1 [melatonin, N-acetyl-5-methoxytryptamine]
MBC [1]: 3.12 to 50 mg/mL (≈ 13.5 to 215 mM) | MIC [1]: 1.56 to 50 mg/mL (≈ 6.73 to 215 mM) | cell morphology in SEM analysis (P. multocida cells; FIG. 10): many holes passing through the OM, peptidoglycan (PG) layers and CM | cell morphology in TEM image (P. multocida cells; FIG. 11): obvious cytoplasmic vacuolization | enzyme activity of citrate synthase [2]: not influenced
